In patent US20230348453A1, “HALOGENATED-HETEROARYL AND OTHER HETEROCYCLIC KINASE INHIBITORS, AND USES THEREOF” (iOmx Therapeutics AG, priority 2020, published 2023):

Columns and labels:
[1] = tested on: M579-A2-luc melanoma tumour cells; assay: Luciferase-based TNF killing assay; type: cell-based, human; settings: TNF 10 ng/mL; inhibitor between about 10 and 100 nM
Method: PANC1-luc is an HLA-A2.1+ luciferase-expressing pancreatic adenocarcinoma (PDAC) tumour cell line, and M579-A2-luc is an HLA-A2.1+ luciferase-expressing melanoma tumour cell line.
After lysis, luciferase assay buffer is added and immediately the luciferase intensity was measured by using the TECAN-Spark microplate reader.

[2] = biological target: CSF1R (Homo sapiens (Human), UniProt P07333); type: biochemical; settings: Kinase Profiler
[3] = biological target: HCK (Homo sapiens (Human), UniProt P08631); type: biochemical; settings: Kinase Profiler
[4] = Human hepatocyte stability; type: in vitro ADME
[5] = Mouse hepatocyte stability; type: in vitro ADME; settings: hepatocytes
[6] = tested on: SIK3 WT and KO MC38 clones; assay: TNF-mediated killing of SIK3 wildtype vs SIK3 knockout MC38 clones (CTG); type: cell-based, mouse; settings: sub-optimal TNF (<10 ng/ml), 72 h
Method: The assay was performed as follows: MC38 SIK3 KO clones were generated using CRISPR. Cells were transfected with RNP complexes (Cas9+gRNA) containing gRNAS targeting SIK3 or non-targeting sequences (control). […] Subsequently, single cell clones were generated by limiting dilution. CRISPR-derived mutations in single clones were detected by next-generation sequencing and analysed using CRISPResso. Knockout and wildtype clones were selected and plated overnight. […] Cells treated with different concentrations of inhibitor but without TNF served as no TNF control. Cell viability was measured by CTG assay.

[7] = biological target: T1, SIK3 (Homo sapiens (Human), UniProt Q9Y2K2); settings: fold of the value of compound C7 (C7 = 1×)
[8] = in vivo, po, 30 mg/kg
[9] = female, C57BL/6, mouse, in vivo, 7 days
[10] = in vivo; settings: male, CD1, mouse, po, 30 mg/kg
[11] = in vitro; settings: human, microsomes
[12] = in vitro; settings: mouse, microsomes
[13] = biological target: SIK2 (Homo sapiens (Human), UniProt Q9H0K1); assay: SIK2 kinase inhibition (IC50); settings: read-out: Kinase: IC50 (nM) SIK2
[14] = biological target: T1, SIK3; assay: SIK3 kinase inhibition (IC50)
[15] = Human plasma-protein binding
[16] = Murine plasma protein binding
[17] = biological target: MDR1 (P-gp) (Homo sapiens (Human), UniProt P08183); assay: MDR1-MDCK effective efflux assay; settings: dog; for efflux ratio: Table 5.1B
[18] = biological target: MDR1 pump (P-gp), MDCK-MDR1 cells (Homo sapiens (Human), UniProt P08183); assay: MDR1-MDCK effective efflux assay; settings: Table 5.1B
[19] = MDCK wild type permeability/efflux; settings: dog
[20] = Screening PK in mice after 30 mg/kg po; settings: for concentration at 6 h: mice, 30 mg/kg po
[21] = Metabolite profile in hepatocytes / in vivo
Excerpt: Metabolites are identified using high-resolution mass spectrometry.

[22] = tested on: MC38 colorectal carcinoma tumours; assay: MC38 syngeneic mouse tumour model (Example 8.1)
[23] = tested on: HDAC4 phosphorylation in PANC-1 cells; assay: HDAC4 phosphorylation (Meso Scale Discovery assay); settings: 10 ng/mL rHuTNF, 3 h
[24] = tested on: MC38 murine tumour cell line; assay: TNF-sensitised cell viability assay (CellTiter-Glo); settings: Mus musculus
[25] = tested on: HCT116 cells; assay: as above; settings: Homo sapiens, HCT-116, read-out: HCT116 IC50 (at 10 ng/ml rHuTNF)
[26] = tested on: NFKB activity in PANC-1 cells; assay: TNF-induced NFKB activity (NFKB-dependent luciferase reporter); settings: 10 ng/ml rHuTNF, PANC-1 reporter cells
[27] = tested on: NFKB activity in MC38 cells; assay: as above; settings: 10 ng/ml rMuTNF
[28] = tested on: human breast skin explants; assay: Human skin explant eumelanisation
[29] = total plasma concentration at 30 mg/kg p.o dose, fold of C7 (C7 = 1×)

CSF1R, sequence (P07333 20-972 limits assumed): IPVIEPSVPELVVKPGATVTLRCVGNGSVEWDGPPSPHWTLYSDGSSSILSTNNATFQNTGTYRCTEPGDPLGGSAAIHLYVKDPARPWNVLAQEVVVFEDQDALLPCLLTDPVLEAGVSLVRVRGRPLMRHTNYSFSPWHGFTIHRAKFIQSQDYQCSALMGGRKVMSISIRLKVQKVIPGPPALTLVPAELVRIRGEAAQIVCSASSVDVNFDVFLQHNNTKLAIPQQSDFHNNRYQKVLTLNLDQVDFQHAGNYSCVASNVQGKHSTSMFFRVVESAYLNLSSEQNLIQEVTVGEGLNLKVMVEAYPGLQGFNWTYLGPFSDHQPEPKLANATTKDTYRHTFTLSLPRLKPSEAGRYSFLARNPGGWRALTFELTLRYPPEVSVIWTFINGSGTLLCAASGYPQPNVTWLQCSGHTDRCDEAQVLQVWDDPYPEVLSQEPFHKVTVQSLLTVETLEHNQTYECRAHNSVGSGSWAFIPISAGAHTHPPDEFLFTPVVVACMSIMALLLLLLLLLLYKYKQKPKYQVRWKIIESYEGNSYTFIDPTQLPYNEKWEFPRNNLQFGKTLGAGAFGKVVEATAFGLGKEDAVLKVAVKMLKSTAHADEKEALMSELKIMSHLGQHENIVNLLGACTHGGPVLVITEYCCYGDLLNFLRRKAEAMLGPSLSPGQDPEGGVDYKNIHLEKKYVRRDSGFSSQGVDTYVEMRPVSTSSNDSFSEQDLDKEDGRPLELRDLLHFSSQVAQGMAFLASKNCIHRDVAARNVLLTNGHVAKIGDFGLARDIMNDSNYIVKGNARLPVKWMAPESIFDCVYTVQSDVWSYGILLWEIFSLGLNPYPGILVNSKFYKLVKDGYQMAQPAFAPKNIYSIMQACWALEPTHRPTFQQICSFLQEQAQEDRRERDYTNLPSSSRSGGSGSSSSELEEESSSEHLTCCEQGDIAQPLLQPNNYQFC

**Q.** For `Cc1nc(Nc2ncc(C(=O)Nc3c(Cl)cccc3Br)s2)cc(N2CCN(CCO)CC2)n1` [Compound B1, N-(2-bromo-6-chlorophenyl)-2-((6-(4-(2-hydroxyethyl)piperazin-1-yl)-2-methylpyrimidin-4-yl)amino)thiazole-5-carboxamide], which “cytotoxicity in the presence of TNF compared to inhibitor alone” value (“cytotoxicity … compared to inhibitor alone” for short) [1] is on record?
**A.** The value was “increased cytotoxicity”.

**Q.** With `COc1c(F)cccc1NC(=O)c1cnc(Nc2cc(N3CCN(CCO)CC3)nc(C)n2)s1` [Compound B4, N-(3-fluoro-2-methoxyphenyl)-2-((6-(4-(2-hydroxyethyl)piperazin-1-yl)-2-methylpyrimidin-4-yl)amino)thiazole-5-carboxamide] as the molecule, how does the “cytotoxicity … compared to inhibitor alone” value [1] read?
**A.** Its value is “fails to exhibit cytotoxicity”.

**Q.** Which CSF1R residual activity [2] does the source give for `Cc1nc(Nc2ncc(C(=O)Nc3c(CF)csc3Cl)s2)cc(N2CCN(C)C(C)C2)n1` (racemic) [Compound E10, N-(2-chloro-4-(fluoromethyl)thiophen-3-yl)-2-((6-(3,4-dimethylpiperazin-1-yl)-2-methylpyrimidin-4-yl)amino)thiazole-5-carboxamide] here?
**A.** Its CSF1R residual activity is “less than 1%”.

**Q.** And the HCK residual activity [3]?
**A.** The HCK residual activity was “less than 1%”.

**Q.** And the “Human hepatocyte stability, Half-life” value [4]?
**A.** Its value is 21 min.

**Q.** And the half-life ([4]; human, hepatocytes, read-out: Human hepatocyte stability, Half-life)?
**A.** Its half-life is 21 to 30 min.

**Q.** And the microsomal CLint ([4]; human, hepatocytes, read-out: Human hepatocyte stability, Intrinsic clearance)?
**A.** The microsomal CLint was 67 µL/min/mg.

**Q.** And the half-life [5]?
**A.** The half-life was 78 min.

**Q.** And the microsomal CLint ([5]; read-out: Mouse hepatocyte stability, Intrinsic clearance)?
**A.** The microsomal CLint was 18 µL/min/mg.

**Q.** What about the “TNF-mediated killing in SIK3 WT vs KO MC38 clones” value [6] of the same molecule?
**A.** The value was “induced TNF-mediated killing only in SIK3 WT clones”.

**Q.** And the “SIK3 IC50 (nM), relative to C7” value [7]?
**A.** Its value is 0.7×.

**Q.** And the “% AUCextrap, Free” value ([8]; male, CD1, mouse)?
**A.** Its value is 4.05%.

**Q.** What about the “% AUCextrap, Total” value ([8]; male, CD1, mouse) of the same molecule?
**A.** Its value is 4.05%.

**Q.** What about the “AUCinf (nM*h), Free” value ([8]; male, CD1, mouse) of the same molecule?
**A.** The value was 128.06 nM·h.

**Q.** What about the “AUClast (nM*h), Free” value ([8]; male, CD1, mouse) of the same molecule?
**A.** The value was 122.87 nM·h.

**Q.** And the “Rsq, Free” value ([8]; mouse)?
**A.** Its value is 0.81.

**Q.** And the “Rsq, Total” value ([8]; mouse)?
**A.** The value was 0.81.

**Q.** What about the “DLT@BID dosing” value [9] of the same molecule?
**A.** The value was “n.d. @30 mg/kg”.

**Q.** And the “DLT@QD dosing” value [9]?
**A.** Its value is “n.d. @30 mg/kg”.

**Q.** And the “HRD in vivo @BID” value [9]?
**A.** The value was 30 mg/kg.

**Q.** What about the “HRD in vivo @QD” value [9] of the same molecule?
**A.** Its value is 30 mg/kg.

**Q.** And the AUC(0-inf) [10]?
**A.** Its AUC(0-inf) is 6.17 µM·h.

**Q.** What about the AUC(0-t) [10] of the same molecule?
**A.** The AUC(0-t) was 5.92 µM·h.

**Q.** And the Cmax [10]?
**A.** Its Cmax is 2040 ng/mL.

**Q.** What about the MRT last [10] of the same molecule?
**A.** The MRT last was 246 min.

**Q.** And the Tmax [10]?
**A.** The Tmax was 15 min.

**Q.** What about the half-life [10] of the same molecule?
**A.** Its half-life is 261 min.

**Q.** What about the half-life [11] of the same molecule?
**A.** Its half-life is 12 min.

**Q.** And the microsomal CLint [11]?
**A.** The microsomal CLint was 120 µL/min/mg.

**Q.** And the half-life [12]?
**A.** Its half-life is 14 min.

**Q.** And the microsomal CLint [12]?
**A.** The microsomal CLint was 99 µL/min/mg.

**Q.** And the IC50 [13]?
**A.** The IC50 was < 20 nM.

**Q.** What about the IC50 [14] of the same molecule?
**A.** The IC50 was 20 to 50 nM.

**Q.** What about the “Human plasma-protein binding, Percentage unbound (%)” value ([15]; Table 5.1A) of the same molecule?
**A.** The value was 1%.

**Q.** What about the recovery at 4 h ([15]; human, plasma) of the same molecule?
**A.** The recovery at 4 h was 74%.

**Q.** And the “Murine plasma protein binding, Percentage unbound (%)” value ([16]; Table 5.1A)?
**A.** The value was 1%.

**Q.** And the recovery at 4 h ([16]; mouse, plasma)?
**A.** Its recovery at 4 h is 101%.

**Q.** What about the Papp ([17]; MDCK-MDR1) of the same molecule?
**A.** The Papp was 4 ×10⁻⁶ cm/s.

**Q.** And the efflux ratio ([17]; MDCK-MDR1, MDCK-MDR1 cells, Mean Efflux Ratio (MDR1))?
**A.** The efflux ratio was 20 to 30.

**Q.** What about the efflux ratio ([17]; MDCK-MDR1, P-gP driven efflux ratio (MDR1/wt)) of the same molecule?
**A.** Its efflux ratio is 19.

**Q.** And the “MDCK-MDR1 cells, Mean Efflux Ratio (MDR1)” value [18]?
**A.** Its value is 31.

**Q.** What about the Papp [19] of the same molecule?
**A.** Its Papp is 10 ×10⁻⁶ cm/s.

**Q.** What about the efflux ratio [19] of the same molecule?
**A.** Its efflux ratio is 1.6.

**Q.** What about the Cmax at 2 h ([20]; mouse, plasma, po, 30 mg/kg) of the same molecule?
**A.** Its Cmax at 2 h is 374 ng/mL.

**Q.** What about the concentration at 6 h ([20]; mouse, plasma, po, 30 mg/kg, Free plasma concentration after 6 h (nM)) of the same molecule?
**A.** The concentration at 6 h was 3.3 nM.

**Q.** What about the concentration at 6 h ([20]; mouse, plasma, po, 30 mg/kg, Plasma concentration after 6 h (nM)) of the same molecule?
**A.** Its concentration at 6 h is 157 nM.

**Q.** What about the “AUC0-last (nM*h), relative to C7” value [20, 29] of the same molecule?
**A.** Its value is 2×.

**Q.** What about the “C max (ng/ml), relative to C7” value [20, 29] of the same molecule?
**A.** The value was 1.7×.

**Q.** And the “MRT0-last (h), relative to C7” value [20, 29]?
**A.** Its value is 2.8×.

**Q.** And the “t1/2 (h), relative to C7” value [20, 29]?
**A.** Its value is 14.5×.

**Q.** And the quinone-imine reactive metabolite [21]?
**A.** Its quinone-imine reactive metabolite is “not observed”.

**Q.** What about the TGI ([22]; MC38, dose not repeated) of the same molecule?
**A.** The TGI was 46%.

**Q.** And the “Body weight increase (%)” value ([22]; MC38, 30 mg/Kg, BID po)?
**A.** Its value is 19.8%.

**Q.** And the Non-treatment related death ([22]; MC38, 30 mg/Kg, BID po)?
**A.** The Non-treatment related death was 0/16.

**Q.** And the “Tumour growth inhibition (%)” value ([22]; MC38, 30 mg/Kg, BID po)?
**A.** The value was 46%.

**Q.** And the “Inhibition of HDAC4 phosphorylation” value [23]?
**A.** Its value is “++”.

**Q.** What about the IC50 ([24]; MC-38, read-out: MC38 IC50 (at 100 ng/mL rMuTNF)) of the same molecule?
**A.** The IC50 was < 100 nM.

**Q.** What about the EC50 ([24]; MC-38, read-out: mean EC50 of sensitising MC38 tumour cells to TNF-mediated killing) of the same molecule?
**A.** The EC50 was < 100 nM.

**Q.** And the IC50 [25]?
**A.** Its IC50 is < 100 nM.

**Q.** And the “Inhibition of NFKB activity (PANC-1)” value [26]?
**A.** Its value is “++”.

**Q.** What about the “Inhibition of NFKB activity (MC38)” value [27] of the same molecule?
**A.** The value was “++”.

**Q.** With `CCOc1cccc(Cl)c1NC(=O)c1cnc(Nc2cc(N3CCN(CCO)CC3)nc(C)n2)s1` [Compound B8, N-(2-chloro-6-ethoxyphenyl)-2-((6-(4-(2-hydroxyethyl)piperazin-1-yl)-2-methylpyrimidin-4-yl)amino)thiazole-5-carboxamide] as the molecule, how does the “cytotoxicity … compared to inhibitor alone” value [1] read?
**A.** Its value is “fails to exhibit cytotoxicity”.

**Q.** With `COc1ccc(N(C(=O)Nc2c(C)cccc2C)c2cc(Nc3ccc(N4CCN(C)CC4)cc3)ncn2)c(OC)c1` [HG 9-91-01] as the molecule, how does the “gross pigmentation of human skin explants, passive topical application” value ([28]; 8 days (1×/day)) read?
**A.** Its value is “no significant gross pigmentation”.

**Q.** And the “melanin content (Fontana-Masson staining), passive application” value ([28]; compared to control)?
**A.** The value was “marginally increased melanin”.

**Q.** And the “gross pigmentation of human skin explants, mechanical application” value ([28]; rubbing via an applicator)?
**A.** Its value is “induces significant gross pigmentation”.
